Measurements as given in publication PMC4707132 (Journal of medicinal chemistry, 2015).

Experiments:
[1] = target: T1, Mcl-1 (Homo sapiens, UniProt Q07820); experiment: fluorescence polarization competition assay; format: binding
[2] = in vitro cellular assay; format: cell-based
[3] = target: T1, Mcl-1; experiment: bio-layer interferometry; format: binding; conditions: label-free BLI
[4] = target: T1, Mcl-1; experiment: HSQC chemical shift mapping; format: binding
[5] = target: T1, Mcl-1; experiment: surface plasmon resonance; format: binding

T1 sequence (Q07820 whole entry): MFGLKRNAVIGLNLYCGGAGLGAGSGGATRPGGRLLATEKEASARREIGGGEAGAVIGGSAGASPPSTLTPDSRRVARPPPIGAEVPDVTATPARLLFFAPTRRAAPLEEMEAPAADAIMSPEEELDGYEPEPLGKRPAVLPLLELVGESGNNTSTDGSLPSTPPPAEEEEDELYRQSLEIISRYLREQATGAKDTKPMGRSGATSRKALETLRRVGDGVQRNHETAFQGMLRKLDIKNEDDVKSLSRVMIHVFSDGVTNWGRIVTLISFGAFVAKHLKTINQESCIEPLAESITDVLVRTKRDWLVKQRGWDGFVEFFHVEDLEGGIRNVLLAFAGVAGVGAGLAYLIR

SMILES | potency relative to M0 [1] | direct binding to Mcl-1 [3] | also measured
COc1cc(/C=C/C(=O)c2ccc(OC)c(OC)c2OC)cc(Cl)c1O [Compound D1] | – | – | potency of Mcl-1 inhibition relative to M0 [1]: about 7 fold
COc1ccc(C(=O)/C=C/c2cc(F)c(O)c(Cl)c2)c(OC)c1OC [Compound D2] | – | – | potency of Mcl-1 inhibition relative to M0 [1]: about 7 fold; biological effect in cells [2]: does not exert the desired biological effect
COc1ccc(C(=O)/C=C/c2cc(F)c(O)c(Cl)c2)cc1 [Compound D3] | potency exceeding that of M0 | – | activity relative to D1 [1]: reduced activity
COc1ccc(C(=O)/C=C/c2cc(Cl)c(O)c(OC)c2)cc1 [Compound D4] | potency exceeding that of M0 | – | –
COc1ccc(C(=O)/C=C/c2ccc(O)c(F)c2)c(OC)c1OC [Compound D5] | very similar inhibition constant as M0 | – | activity relative to D1 [1]: reduced activity
COc1cc(C(=O)/C=C/c2ccc(O)cc2)c(O)c(OC)c1OC [Compound D7] | less potent than M0 | – | –
COc1ccc(/C=C/C(=O)c2cc(OC)c(OC)c(OC)c2O)cc1 [Compound D12] | less potent than M0 | – | –
COc1cc(C(=O)/C=C/c2ccc(C(F)(F)F)cc2)c(O)c(OC)c1OC [Compound D13] | less potent than M0 | – | –
COc1cc(C(=O)/C=C/c2ccc([N+](=O)[O-])cc2)c(O)c(OC)c1OC [Compound D14] | less potent than M0 | – | –
COc1cc(O)c(C(=O)/C=C/c2ccc(O)c(OC)c2)c(OC)c1 [Compound M0, 2’,4-dihydroxy-3,4’,6’-trimethoxychalcone] | – | confirmed the activity | HSQC spectrum [4]: small number of distinct chemical shift differences; SPR response [5]: did not exhibit super-stoichiometric behavior
Cc1c(/C=N/N2C=Nc3c([nH]c4ccccc34)C2)c(=O)oc2c3c4c(cc12)CCCN4CCC3 [Compound M1] | – | confirmed the activity | Ki [1]: 1200 nM
C[C@@]12CC[C@@H]3[C@H](CCC4=CC(=O)CC[C@H]43)[C@H]1CC[C@H]2OC1(O)C(=O)c2ccccc2C1=O [Compound M5] | – | confirmed the activity | –
c1cc2c(cc1[C@H]1OC[C@H]3[C@H]1CO[C@H]3c1ccc3c(c1)OCO3)OCO2 [Compound M7] | – | confirmed the activity | –
